From patent US20150337013A1, “NOVEL ANTIBACTERIAL AGENTS FOR THE TREATMENT OF GRAM POSITIVE INFECTIONS” (priority 2008, published 2015)
Where two headings read alike, the source gives them in different places.

Columns and labels:
[1] = tested on: Enterococcus faecalis EFS.312, Daptomycin resistant mutant (EFA); type: cell-based; conditions: MHBc with 50 mg/L calcium, 18-20 hours at 37° C.
In short: (§1)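 Broth microdilution per CLSI M7-A7 in Mueller Hinton broth supplemented with 50 mg/L calcium, 5×10^5 bacteria per well, 2-fold compound dilutions, DMSO ≤1%. Plates incubated 18-20 hours at 37° C with aeration (200 rpm); MIC (μg/mL) is the lowest concentration giving no visible turbidity.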

[2] = tested on: Staphylococcus aureus SAU.399 (ATCC 43300), Methicillin and Oxacillin Resistant; type: cell-based
In short: as §1

[3] = tested on: Enterococcus faecium EFM.14 (ATCC 6569); type: cell-based
In short: as §1

[4] = tested on: Enterococcus faecalis EFS.201 (ATCC 49452); type: cell-based
In short: as §1

[5] = tested on: Staphylococcus aureus SAU.42 (ATCC 29213); type: cell-based
In short: as §1

[6] = tested on: Staphylococcus aureus SAU.278, Daptomycin resistant mutant (D10); type: cell-based; conditions: MHBc with 50 mg/L calcium, 18-20 hours at 37° C.
In short: as §1

[7] = tested on: Enterococcus faecium EFM.384, Daptomycin resistant mutant (14-A); type: cell-based; conditions: MHBc with 50 mg/L calcium, 18-20 hours at 37° C.
In short: as §1

[8] = MHBc with 50 mg/L calcium, 18-20 hours at 37° C.

Compound: CC(C)CCCCCCCCCCC(=O)N[C@@H](Cc1c[nH]c2ccccc12)C(=O)N[C@H](CC(N)=O)C(=O)N[C@@H](CC(=O)O)C(=O)N[C@@H]1C(=O)NCC(=O)N[C@@H](CCCN)C(=O)N[C@@H](CC(=O)O)C(=O)N[C@H](C)C(=O)N[C@@H](CC(=O)O)C(=O)NCC(=O)N[C@H](CO)C(=O)N[C@@H]([C@H](C)CC(=O)O)C(=O)N[C@@H](CC(=O)c2ccccc2N)C(=O)O[C@@H]1C [Compound 11]
- Efs312 MIC [1]: 16 µg/mL
- Sa399 MIC ([2]; ATCC 43300): 0.25 µg/mL
- Efm14 MIC ([3]; ATCC 6569): 1 µg/mL
- Efs201 MIC ([4]; ATCC 49452): 1 µg/mL
- Sa42 MIC ([5]; ATCC 29213): 0.125 µg/mL
- Sa278 MIC [6]: 0.5 µg/mL
- Efm384 MIC [7]: 4 µg/mL
- C. diff MIC90 (Clostridium difficile): 1 µg/mL

Compound: C[C@H](CC(=O)O)[C@@H]1NC(=O)[C@@H](CO)NC(=O)CNC(=O)[C@H](CC(=O)O)NC(=O)[C@@H](C)NC(=O)[C@H](CC(=O)O)NC(=O)[C@H](CCCN)NC(=O)CNC(=O)[C@@H](NC(=O)[C@H](CC(=O)O)NC(=O)[C@@H](CC(N)=O)NC(=O)[C@H](Cc2c[nH]c3ccccc23)NC(=O)/C=C/c2ccc(-c3ccccc3)cc2)[C@@H](C)OC(=O)[C@H](CC(=O)c2ccccc2N)NC1=O [Compound 71]
- Efs312 MIC [1]: >32 µg/mL
- Sa399 MIC [2, 8]: 2 µg/mL
- Efm14 MIC [3, 8]: 16 µg/mL
- Efs201 MIC [4, 8]: 8 µg/mL
- Sa42 MIC [5, 8]: 2 µg/mL
- Sa278 MIC [6]: 32 µg/mL
- Efm384 MIC [7]: >32 µg/mL
- C. diff MIC90 (Clostridium difficile): 16 µg/mL

Compound: C[C@H](CC(=O)O)[C@@H]1NC(=O)[C@@H](CO)NC(=O)CNC(=O)[C@H](CC(=O)O)NC(=O)[C@@H](C)NC(=O)[C@H](CC(=O)O)NC(=O)[C@H](CCCN)NC(=O)CNC(=O)[C@@H](NC(=O)[C@H](CC(=O)O)NC(=O)[C@@H](CC(N)=O)NC(=O)[C@H](Cc2c[nH]c3ccccc23)NC(=O)C2CCC(c3ccc(Cl)cc3)CC2)[C@@H](C)OC(=O)[C@H](CC(=O)c2ccccc2N)NC1=O (stereo partly drawn) [Compound 67]
- Efs312 MIC [1]: >32 µg/mL
- Sa399 MIC ([2]; ATCC 43300): 4 µg/mL
- Efm14 MIC ([3]; ATCC 6569): 8 µg/mL
- Efs201 MIC ([4]; ATCC 49452): 4 µg/mL
- Sa42 MIC ([5]; ATCC 29213): 0.5 µg/mL
- Sa278 MIC [6]: 4 µg/mL
- Efm384 MIC [7]: >32 µg/mL
- C. diff MIC90 (Clostridium difficile): 4 µg/mL

Compound: C[C@H](CC(=O)O)[C@@H]1NC(=O)[C@@H](CO)NC(=O)CNC(=O)[C@H](CC(=O)O)NC(=O)[C@@H](C)NC(=O)[C@H](CC(=O)O)NC(=O)[C@H](CCCN)NC(=O)CNC(=O)[C@@H](NC(=O)[C@H](CC(=O)O)NC(=O)[C@@H](CC(N)=O)NC(=O)[C@H](Cc2c[nH]c3ccccc23)NC(=O)c2ccc(-c3ccc(-c4ccccc4)cc3)cc2)[C@@H](C)OC(=O)[C@H](CC(=O)c2ccccc2N)NC1=O [Compound 69]
- Efs312 MIC [1]: 32 µg/mL
- Sa399 MIC [2, 8]: 0.125 µg/mL
- Efm14 MIC [3, 8]: 0.5 µg/mL
- Efs201 MIC [4, 8]: 0.5 µg/mL
- Sa42 MIC [5, 8]: 0.125 µg/mL
- Sa278 MIC [6]: 0.125 µg/mL
- Efm384 MIC [7]: 4 µg/mL
- C. diff MIC90 (Clostridium difficile): 2 µg/mL

Compound: CCCCCCCCCC(C)NC(=O)N[C@@H](Cc1c[nH]c2ccccc12)C(=O)N[C@H](CC(N)=O)C(=O)N[C@@H](CC(=O)O)C(=O)N[C@@H]1C(=O)NCC(=O)N[C@@H](CCCN)C(=O)N[C@@H](CC(=O)O)C(=O)N[C@H](C)C(=O)N[C@@H](CC(=O)O)C(=O)NCC(=O)N[C@H](CO)C(=O)N[C@@H]([C@H](C)CC(=O)O)C(=O)N[C@@H](CC(=O)c2ccccc2N)C(=O)O[C@@H]1C (single isomer, unassigned) [14 isomer I]
- Efs312 MIC [1]: 32 µg/mL
- Sa399 MIC ([2]; ATCC 43300): 0.5 µg/mL
- Efm14 MIC ([3]; ATCC 6569): 0.5 µg/mL
- Efs201 MIC ([4]; ATCC 49452): 1 µg/mL
- Sa42 MIC ([5]; ATCC 29213): 0.25 µg/mL
- Sa278 MIC [6]: 1 µg/mL
- Efm384 MIC [7]: 8 µg/mL
- C. diff MIC90 (Clostridium difficile): 1.0 µg/mL

Compound: CCCCCCOc1ccc(C(=O)N[C@@H](Cc2c[nH]c3ccccc23)C(=O)N[C@H](CC(N)=O)C(=O)N[C@@H](CC(=O)O)C(=O)N[C@@H]2C(=O)NCC(=O)N[C@@H](CCCN)C(=O)N[C@@H](CC(=O)O)C(=O)N[C@H](C)C(=O)N[C@@H](CC(=O)O)C(=O)NCC(=O)N[C@H](CO)C(=O)N[C@@H]([C@H](C)CC(=O)O)C(=O)N[C@@H](CC(=O)c3ccccc3N)C(=O)O[C@@H]2C)cc1 [Compound 35]
- Efs312 MIC [1]: >32 µg/mL
- Sa399 MIC [2, 8]: 0.5 µg/mL
- Efm14 MIC [3, 8]: 2 µg/mL
- Efs201 MIC [4, 8]: 1.0 µg/mL
- Sa42 MIC [5, 8]: 0.5 µg/mL
- Sa278 MIC [6]: 4.00 µg/mL
- Efm384 MIC [7]: 32 µg/mL
- C. diff MIC90 (Clostridium difficile): 2 µg/mL

Compound: CCCCCCCCCC(=O)N[C@@H](Cc1c[nH]c2ccccc12)C(=O)N[C@H](CC(N)=O)C(=O)N[C@@H](CC(=O)O)C(=O)N[C@@H]1C(=O)NCC(=O)N[C@@H](CCCN)C(=O)N[C@@H](CC(=O)O)C(=O)N[C@H](C)C(=O)N[C@@H](CC(=O)O)C(=O)NCC(=O)N[C@H](CO)C(=O)N[C@@H]([C@H](C)CC(=O)O)C(=O)N[C@@H](CC(=O)c2ccccc2N)C(=O)O[C@@H]1C [Daptomycin, reference compound]
- Efs312 MIC [1]: >32 µg/mL
- Sa399 MIC ([2]; ATCC 43300): 0.5 µg/mL
- Efm14 MIC ([3]; ATCC 6569): 4 µg/mL
- Efs201 MIC ([4]; ATCC 49452): 2 µg/mL
- Sa42 MIC ([5]; ATCC 29213): 0.5 µg/mL
- Sa278 MIC [6]: 8 µg/mL
- Efm384 MIC [7]: >32 µg/mL
- C. diff MIC90 (Clostridium difficile): 2 µg/mL

Compound: CCCCCCCCC1CC1C(=O)N[C@@H](Cc1c[nH]c2ccccc12)C(=O)N[C@H](CC(N)=O)C(=O)N[C@@H](CC(=O)O)C(=O)N[C@@H]1C(=O)NCC(=O)N[C@@H](CCCN)C(=O)N[C@@H](CC(=O)O)C(=O)N[C@H](C)C(=O)N[C@@H](CC(=O)O)C(=O)NCC(=O)N[C@H](CO)C(=O)N[C@@H]([C@H](C)CC(=O)O)C(=O)N[C@@H](CC(=O)c2ccccc2N)C(=O)O[C@@H]1C (single isomer, unassigned) [27 isomer II]
- Efs312 MIC [1]: 32 µg/mL
- Sa399 MIC ([2]; ATCC 43300): 0.5 µg/mL
- Efm14 MIC ([3]; ATCC 6569): 1 µg/mL
- Efs201 MIC ([4]; ATCC 49452): 0.5 µg/mL
- Sa42 MIC ([5]; ATCC 29213): 1 µg/mL
- Sa278 MIC [6]: 2 µg/mL
- Efm384 MIC [7]: 4 µg/mL
- C. diff MIC90 (Clostridium difficile): 1 µg/mL

Compound: C[C@H](CC(=O)O)[C@@H]1NC(=O)[C@@H](CO)NC(=O)CNC(=O)[C@H](CC(=O)O)NC(=O)[C@@H](C)NC(=O)[C@H](CC(=O)O)NC(=O)[C@H](CCCN)NC(=O)CNC(=O)[C@@H](NC(=O)[C@H](CC(=O)O)NC(=O)[C@@H](CC(N)=O)NC(=O)[C@H](Cc2c[nH]c3ccccc23)NC(=O)CCCCC2CCCCC2)[C@@H](C)OC(=O)[C@H](CC(=O)c2ccccc2N)NC1=O [Compound 24]
- Efs312 MIC [1]: >32 µg/mL
- Sa399 MIC ([2]; ATCC 43300): 1 µg/mL
- Efm14 MIC ([3]; ATCC 6569): 4 µg/mL
- Efs201 MIC ([4]; ATCC 49452): 2 µg/mL
- Sa42 MIC ([5]; ATCC 29213): 1 µg/mL
- Sa278 MIC [6]: 8 µg/mL
- Efm384 MIC [7]: 32 µg/mL
- C. diff MIC90 (Clostridium difficile): 4 µg/mL
